Patent US20210395250A1, “NOVEL CRYSTAL OF (3S)-3-[2-(6-AMINO-2-FLUOROPYRIDIN-3-YL)-4-FLUORO-1H-IMIDAZOL-5-YL]-7-[5-CHLORO-2-(1H-TETRAZOL-1-YL)PHENYL]-2,3-DIHYDROINDOLIZIN-5(1H)-ONE” (priority 2018, published 2021)
≈ marks a conversion by molar mass, not a printed value. Where two headings read alike, the source gives them in different places.

Key:
[1] = Evaluation of hygroscopicity: isothermal absorption curve measurement (DVS); assay type: physicochemical
Method: Physical Chemical Example 1: Evaluation of Hygroscopicity
An isothermal absorption curve measurement (DVS) was carried out under the following conditions.
Device: DVS Intrinsic, manufactured by SMS
Measurement temperature: 25° C.
Measurement range: relative humidity of 0 to 95%
Interval of measurement: relative humidity of 5%

[2] = Evaluation of solubility in JP 1st fluid and artificial intestinal juice (FaSSIF), HPLC; assay type: physicochemical; conditions: after 24 hours; for solubility at 24 h: 37 °C, thermodynamic from solid
Method: The measurement of solubility was carried out under the following conditions.
About 3 mg of each of the compounds of the present invention was weighed in a test tube, then a stirrer and 5 mL of each of an artificial intestinal juice (FaSSIF; Reference Document 1: Pharmaceutical Research, vol. 20, pp. 1674-1680, 2003; Reference Document 2: Biological & Pharmaceutical Bulletin, vol. 34, pp. 401-407, 2011) and JP 1st fluid which had been warmed to 37° C. were added to the test tube, and then the test tube was sealed hermetically. The test tube was installed in a solubility test device (Gilson, Quad-Z 215), and the solution was stirred at 37° C. and 700 rpm. After 0.25, 0.5, 1, 3, 6 and 24 hours, an aliquot of the solution in the test tube was collected. The collected solution was filtrated through a filter, and a filtrate was diluted two-folds with acetonitrile. A diluted solution of the artificial intestinal juice was centrifuged at 3000 rpm for 5 minutes, and a supernatant was used as a sample solution. A diluted solution of the JP 1st fluid was used as is as a sample solution. Solubility was calculated by a high-performance liquid chromatography method.
Column: Waters Xbridge ShieldRP18 (4.6 mm (inner diameter)×50 mm, 3.5 μm) Column temperature: 40° C. Component of mobile phase: 20 mM potassium dihydrogen phosphate (pH 3.0)/acetonitrile (0 minute: 70/30, 5 minutes: 25/75)
Flow rate: 1.0 mL/min Sample rack temperature: 15° C. Sample injection amount: 10 μL Measurement time: 5 minutes Retention time: 2.6 minutes

[3] = Evaluation of oral absorption after oral administration of suspensions to monkeys; conditions: for oral absorption rate (%): cynomolgus monkeys/male, fasted, 1 mg/kg oral suspension in 0.5% aqueous methyl cellulose, oral AUC / intravenous AUC (1 mg/kg) x 100
Method: The measurement of oral absorption was carried out under the following conditions.
Each of the suspensions was prepared with a 0.5% aqueous methyl cellulose solution at a concentration of 0.33 mg/mL (in terms of free base content). Each of the suspensions was administered to monkeys (cynomolgus monkeys/male), which had been fasted since the day before, in the stomach thereof forcibly with a sonde. The amount of administration was adjusted depending on the body weight of each of the monkeys so that the dosage amount became 1 mg/kg.
After the administration of the suspensions (liquid pharmaceuticals), at the timing of 0.25, 0.5, 1, 2, 4, 7 and 24 hours after the administration, blood (0.5 mL) was collected from the cephalic vein with a heparin-added syringe. The collected blood was centrifuged at 10000 G for 5 minutes to separate plasma from the blood. In the evaluation of the oral absorption of the test compounds, data obtained when the test compounds were administered intravenously at the same dose amounts (1 mg/kg) were employed. The oral absorption rate (%) was calculated by dividing an AUC (area under the blood concentration-time curve) value obtained in the oral administration by an AUC value obtained in the intravenous administration and then multiplying the resultant value by 100.
The whole volume of the solution was added to Oasis HLB μElution Plate through which acetonitrile (200 μL) and purified water (200 μL) had been passed, and was then sucked under reduced pressure. Purified water (200 μL) was added to the solution, and the resultant solution was washed by sucking under reduced pressure. Acetonitrile (200 μL) was added to the solution, the resultant solution was sucked under reduced pressure, and an eluate was collected in a 96-well plate. The eluate (10 μL) was added to a 0.1% aqueous formic acid solution/acetonitrile (2/1) solution (290 μL), and the resultant solution was stirred and was then analyzed by LC/MS/MS.
The analysis by LC/MS/MS was carried out under the following conditions.
Measurement device: API-5000 (manufactured by Applied Biosystems/MDS SCIEX) Analysis column: Cadenza CD-C18 (2.0 mm I.D.×100 mm, 3 μm) Flow rate: 0.4 mL/min. Components of mobile phase: a 0.1% aqueous formic acid solution/acetonitrile (0 minute: 65/35, 4.0 minutes: 65/35, 4.1 minutes: 10/90, 5.0 minutes: 10/90, 5.1 minutes: 65/35, 7.0 minutes: 65/35) Scan type: MRM (Multiple Reaction Monitoring)

[4] = artificial intestinal juice (FaSSIF), 37° C., 700 rpm
[5] = artificial intestinal juice (FaSSIF), 37° C.

Compound | Solubility, JP 1st fluid ([2]; JP 1st fluid, 37° C., 700 rpm) | Solubility, Artificial intestinal juice [2, 4] | solubility in the artificial intestinal juice [2, 5] | oral absorption rate (%) [3] | hygroscopicity (in words) [1] | further results
Nc1ccc(-c2nc(F)c([C@@H]3CCc4cc(-c5cc(Cl)ccc5-n5cnnn5)cc(=O)n43)[nH]2)c(F)n1 [Example 5, (3S)-3-[2-(6-Amino-2-fluoropyridin-3-yl)-4-fluoro-1H-imidazol-5-yl]-7-[5-chloro-2-(1H-tetrazol-1-yl)phenyl]-2,3-dihydroindolizin-5(1H)-one-3-hydroxybenzoic acid (1/1)] | 75 μg/m | 60 μg/m | 60 µg/mL (≈ 118 µM) | ~100% | – | weight change rate ([1]; DVS, 25° C., relative humidity of 0 to 95%): less than 1%; solubility in the JP 1st fluid ([2]; JP 1st fluid, 37° C.): 75 µg/mL (≈ 148 µM)
Nc1ccc(-c2nc(F)c([C@@H]3CCc4cc(-c5cc(Cl)ccc5-n5cnnn5)cc(=O)n43)[nH]2)c(F)n1 [Example 1(11), (3S)-3-[2-(6-amino-2-fluoro-3-pyridinyl)-4-fluoro-1H-imidazol-5-yl]-7-[5-chloro-2-(1H-tetrazol-1-yl)phenyl]-2,3-dihydro-5(1H)-indolizinone dihydrate] | – | – | – | – | high hygroscopicity | solubility at 24 h ([2]; JP 1st fluid, simulated gastric fluid, JP 1st fluid, 700 rpm, read-out: Solubility, JP 1st fluid): 41 µg/mL; solubility at 24 h ([2]; JP 1st fluid, simulated gastric fluid, JP 1st fluid, read-out: solubility in the JP 1st fluid): 41 µg/mL; solubility at 24 h ([2]; artificial intestinal juice (FaSSIF), fassif, artificial intestinal juice (FaSSIF), 700 rpm, read-out: Solubility, Artificial intestinal juice): 47 µg/mL; solubility at 24 h ([2]; artificial intestinal juice (FaSSIF), fassif, artificial intestinal juice (FaSSIF), read-out: solubility in the artificial intestinal juice): 47 µg/mL; oral absorption rate (%) ([3]; dihydrate): 26%; oral absorption (in words) ([3]; monkeys, oral): poor oral absorption
(3S)-3-[2-(6-Amino-2-fluoropyridin-3-yl)-4-fluoro-1H-imidazol-5-yl]-7-[5-chloro-2-(1H-tetrazol-1-yl)phenyl]-2,3-dihydroindolizin-5(1H)-one-nicotinamide (2/1) [Example 4] | 77 μg/m | 60 μg/m | 60 µg/mL | 44% | – | –
(3S)-3-[2-(6-Amino-2-fluoropyridin-3-yl)-4-fluoro-1H-imidazol-5-yl]-7-[5-chloro-2-(1H-tetrazol-1-yl)phenyl]-2,3-dihydroindolizin-5(1H)-one-3-hydroxybenzoic acid (1/1) [Example 5] | – | – | – | – | low hygroscopicity | –
